Experimental data reported in the NIST ThermoML archive (doi:10.1016/j.jct.2012.08.030).

How the values were obtained:
[1] = xn = mol fraction of the nth substance listed; settings: 313.15 K, 101.3 kPa, Liquid; for speed of sound: Sing-around technique in a fixed-path interferometer; for mass density: Vibrating tube method
[2] = refractive index (Na D-line) (dimensionless); xn = mol fraction of the nth substance listed; settings: 101.3 kPa, Liquid, Standard Abbe refractometry

CCCCn1cc[n+](C)c1.COS(=O)(=O)[O-] [1-butyl-3-methylimidazolium methyl sulfate] + CO
[1]
Settings	mass density [kg/m3]	speed of sound [m/s]
x1 = 0.0422	857.888	1146.2
x1 = 0.094	929.815	1230.8
x1 = 0.1857	1016.06	1343.9
x1 = 0.2858	1073.54	1424.6
x1 = 0.3729	1107.37	1473.6
x1 = 0.4772	1135.72	1515.7
x1 = 0.5769	1155.64	1545.9
x1 = 0.6775	1170.94	1569.2
x1 = 0.7947	1184.65	1590.3
x1 = 0.8923	1193.93	1605.1
x1 = 0.9526	1198.87	1612.9
x1 = 1	1202.01	1617.9

refractive index, [2]
Settings	298.15 K	303.15 K	308.15 K	313.15 K
x1 = 0.0422	1.35708	1.35523	1.35331	1.35141
x1 = 0.094	1.38271	1.38094	1.37913	1.37735
x1 = 0.1857	1.41321	1.41156	1.4099	1.40827
x1 = 0.2858	1.43348	1.43193	1.43036	1.4288
x1 = 0.3729	1.44537	1.44388	1.44239	1.4409
x1 = 0.4772	1.45531	1.45387	1.45242	1.45097
x1 = 0.5769	1.46226	1.46087	1.45945	1.45804
x1 = 0.6775	1.46761	1.46624	1.46485	1.46348
x1 = 0.7947	1.47248	1.47111	1.46972	1.46836
x1 = 0.8923	1.47576	1.4744	1.47303	1.47168
x1 = 0.9526	1.47744	1.47608	1.47475	1.47338
x1 = 1	1.47824	1.47704	1.47577	1.47443
